Laboratory results published in patent publication US20130137767A1, “Methods and Compositions for Treating Arthritis with Docosahexaenoic Acid” (DSM IP ASSETS B.V., priority 2010, published 2013).

Legend:
Assay type in all cases: in vivo, Male DBA/1O1aHsd mice
anti-collagen antibodies = experiment: CIA EE vs. TG (Example 2): serum anti-collagen antibodies; details: for serum anti-collagen antibodies: day 21
Method: (§1) Male DBA/1O1aHsd mice were enrolled, quarantined, and feed study diets following the protocols described in Example 1 (CIA-EE Study). EE and TG oils were blended into the base diet to provide 2500 mg/kg PUFA per day (HED approximately 12 g/day). A single dose of PUFA per day (HED approximately 5 g/day). The 1000 mg/kg DHA-EE dose was equivalent to the amount of DHA administered in the DHA/EPA-EE blend. The fat blend the 2500 mg/kg EE diets consisted of approximately: 1 part flax, 12 parts HCOC and 23 parts HO-SAFF; 1000 mg/kg EE diet: 1 part flax, 12 parts HCOC and 32 parts HO-SAFF; 2500 mg/kg DHASCO® oil diet: 1 part flax, 8 parts HCOC, 17 parts HO-SAFF and 15 parts soybean oil; 2500 mg/kg DHA-S oil diet: 1 part flax, 5 parts HCOC, 16 parts HO-SAFF and 6 parts soybean oil. 2500 mg/kg DHA/EPA (Nordic Naturals fish oil) diet: 1 part flax, 21 parts HCOC, 18 parts HO-SAFF and 13 parts soybean oil. The monounsaturate control animals received a fat blend of 1 part flax, 7 parts HCOC and 25 parts HO-SAFF. All study diets provided a total of 7% fat. Animals in the No Disease control and Dexamethasone groups were fed the diet containing OA-EE. Mice received collagen injections on day 0 and day 21, as described previously. Blood samples were collected at day 21 and day 45. At day 45, joints were collected for histology and pathology.
A reduction in serum anti-collagen antibodies also correlated with a reduction in disease severity. […] (FIG. 12).

[1] = CIA EE vs. TG (Example 2): serum phospholipid fatty acid levels by FAME analysis
Method: as §1
Serum phospholipid fatty acid levels were determined by FAME analysis (FIG. 11). Treatment with DHASCO® or DHA-S oil elevated serum DHA levels 3-4 fold (p<0.001), as compared to the monounsaturated (placebo) control. DHA-EE treatment elevated DHA levels 3-5 fold (p<0.001), as compared to the OA-EE (placebo) control. DPAn6-TG and EE elevated DPAn6 levels 3-4 fold (p<0.001), as compared to the monounsaturated or OA-EE (placebo) control. Serum EPA levels were elevated approximately 30 fold (p<0.001) when fish oil or DHA/EPA-EE was administered, as compared to the monounsaturated or OA-EE (placebo) control. Serum EPA levels were also elevated by treatment with DHASCO® (p<0.001), DHA-S (p<0.05), or with DHA-EE (p<0.001), as compared to the monounsaturated or OA-EE (placebo) control. […] Treatment with either DHASCO® or DHA-EE (2500 mg/kg) reduced ARA levels by approximately 90% (p<0.001), as compared to the monounsaturated or OA-EE (placebo) control. […] Serum ARA levels were reduced to a lesser degree by DHA-S (24%, p<0.001), fish oil (37%, p<0.001) and DHA/EPA-EE (49%, p<0.001), as compared to the monounsaturated or OA-EE (placebo) control. Data shown represents 3 pooled animals per group. Means±SD. *p<0.05 ***p<0.001.

[2] = tested on: Collagen-Induced Arthritis (CIA); experiment: CIA EE vs. TG (Example 2): paw, knee and six-joint histopathology; details: day 45
Method: as §1, with “pathology. Placebo-treated diseased animals had histopathology changes, consistent with those seen in type II collagen induced arthritis, in most joints, with scores ranging from normal to severe. Microscopic alteration included infiltration of synovium and periarticular tissue with neutrophils and mononuclear inflammatory cells (inflammation), marginal zone pannus and bone resorption and cartilage damage (proteoglycan loss, chondrocyte death and collagen matrix destruction). Four-paw, knee and joint parameters were assigned a quantitative score 0=normal, 1=minimal, 2=mild, 3=moderate, 4=marked, 5=severe and a total score was determined per animal.” for “pathology.”

## CC/C=C\C/C=C\C/C=C\C/C=C\C/C=C\C/C=C\CCC(=O)OCC [DHA-EE]
anti-collagen antibodies; 1000 mg/kg
  serum anti-collagen antibodies: significantly reduced
anti-collagen antibodies; 2500 mg/kg PUFA, FIG. 12
  serum anti-collagen antibodies: significantly reduced
anti-collagen antibodies; day 45, 2500 mg/kg PUFA, FIG. 12
  serum anti-collagen antibody levels: significantly reduced
[1]; 1000 mg/kg
  serum ARA levels, reduction vs OA-EE (placebo) control: 77%
[1]; 2500 mg/kg PUFA
  serum ARA levels, reduction vs monounsaturated or OA-EE (placebo) control: approximately 90%
[1]; 2500 mg/kg PUFA (DHA-EE dose not stated)
  serum EPA levels, elevation vs monounsaturated or OA-EE (placebo) control: elevated
[1]; dose not stated (1000 and 2500 mg/kg tested)
  serum DHA levels, elevation vs OA-EE (placebo) control: 3-5 fold
[2]; 1000 mg/kg
  knee histopathology parameters: not significantly affected
  paw histopathology parameters: not significantly affected
  six-joint histopathology parameters: not significantly affected
[2]; 2500 mg/kg PUFA, FIG. 10
  six-joint histopathology parameters: significantly reduced towards normal
[2]; 2500 mg/kg PUFA, vs placebo control, FIG. 10
  paw histopathology parameters (inflammation, pannus, cartilage damage, bone damage): reduced
